# According to PubChem BioAssay AID1949 (Southern Research Institute, 2009):
# Records with an inconclusive call do not appear. Active and inactive are the calls of the source. No rule for the calls is given here.
# System: M. tuberculosis H37Rv growth inhibition
# Test: Confirmatory growth inhibition assay against Mycobacterium tuberculosis H37Rv, potency (AID 1949);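 also: bacteria grown 7 days with compound before Alamar blue readout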
row,SMILES,IC50
1,CC(C(=O)OCc1ccccc1Cl)n1cnc2scc(-c3ccc(Cl)cc3)c2c1=O (stereo not drawn),> 50 µg/mL (inactive)
2,Cc1cc(-c2csc(Nc3ccc(S(N)(=O)=O)cc3)n2)ccc1F,2.34 µg/mL
3,COC(=O)COc1ccc(NC(=O)c2ccc(-c3ccccc3)cc2)cc1,< 0.1 µg/mL
4,CC(C)(C)c1ccc(C(=O)Nc2nc3ccccc3[nH]2)cc1,< 0.1 µg/mL
5,Cc1ccc(NC(=O)NC23CC4(C)CC(C)(CC(C)(C4)C2)C3)cc1,> 50 µg/mL (inactive)
6,COc1ccc(CNCCC(c2ccc(OC)cc2)c2ccccc2OC)cc1 (stereo not drawn),8 µg/mL
7,CN(C)C(=S)NC(=O)c1cccc(Cl)c1,4.63 µg/mL
8,COC(=O)COc1ccc(NC(=O)c2cccc(C)c2)cc1,0.58 µg/mL
9,COc1cc(CNC(C)c2ccccc2)cc(Br)c1OCc1ccccc1 (stereo not drawn),6.21 µg/mL
10,S=C(NCCc1ccccc1)Nc1ccc(Nc2ccccc2)cc1,3.85 µg/mL
11,COc1cc(/C=C2\Oc3ccccc3C2O)cc(Cl)c1OC (stereo not drawn),3.04 µg/mL
12,Cc1ccc(-c2csc3nc4c5ccccc5c(NCCCN5CCOCC5)nn4c(=O)c23)cc1,> 50 µg/mL (inactive)
13,NC(=O)c1c(NC(=O)c2cc3ccccc3oc2=O)sc2c1CCCCCC2,1.03 µg/mL
14,O=C(CCc1ccccc1)NC(=S)Nc1ccc(N2CCCCC2)cc1,0.27 µg/mL
15,COC(=O)COc1ccc(NC(=O)COc2ccc(C(C)(C)C)cc2)cc1,0.17 µg/mL
16,CN1CCN(c2ccc(NC(=O)c3cccc(OCc4ccccc4)c3)cc2)CC1,21.4 µg/mL
17,NC(=O)COc1ccc(C23CC4CC(CC(C4)C2)C3)cc1,19.7 µg/mL
18,O=C(Oc1cccc2cccnc12)c1ccccc1Br,1.36 µg/mL
19,Cc1cccc(OCCn2c(NC(=O)c3ccco3)nc3ccccc32)c1,2.87 µg/mL
20,O=C1N(Cc2ccccc2Cl)c2ccc(Br)cc2C1(O)c1c[nH]c2ccccc12 (stereo not drawn),1.68 µg/mL

row,SMILES,IC50
1,CCCc1cc2c(=O)c(-c3ccc4c(c3)OCCCO4)coc2cc1OCC(=O)OCC,0.3 µg/mL
2,O=C(NCCc1c[nH]c2ccccc12)Nc1ccc(Cl)c(Cl)c1,3.69 µg/mL
3,CC(=O)c1cccc(NC(=S)NC(=O)c2ccc(C(C)(C)C)cc2)c1,12.5 µg/mL
4,COc1cccc(N2CCN(C(=O)Nc3ccc(Cl)c(Cl)c3)CC2)c1,9.41 µg/mL
5,O=C(CSc1nnc(-c2ccccc2)o1)Nc1ccc2ccccc2c1,1.02 µg/mL
6,O=C(CSc1ccc(Br)cc1)Nc1ccccc1,7.69 µg/mL
7,CC(C)c1ccc(NCCC(=O)c2cccs2)cc1,6.34 µg/mL
8,CC(C)(C)c1cc(Cl)ccc1OCCCCn1ccnc1,1.41 µg/mL
9,C/C(=N/N=C1\NC(=O)C(Cc2cccc(C(F)(F)F)c2)S1)c1ccc(C)cc1 (stereo not drawn),4.95 µg/mL
10,O=C(NC(=S)Nc1cccc(C(F)(F)F)c1)c1cccs1,2.39 µg/mL
11,Cc1cc(OCCCn2ccnc2)ccc1Cl,1.94 µg/mL
12,O=C(Nc1cc(Cl)ccc1O)c1cc(Cl)ccc1Cl,12.2 µg/mL
13,OC(CNC1CCCC1)Cn1c2ccccc2c2ccccc21 (stereo not drawn),8.93 µg/mL
14,Clc1cc(Cl)c2c(c1)NC(c1cccnc1)C1CC=CC21 (stereo not drawn),22.1 µg/mL
15,CC(Oc1ccc(C(=O)NCCc2ccccc2)cc1)C(=O)OCc1ccccc1 (stereo not drawn),2.32 µg/mL
16,Cc1ccc([N+](=O)[O-])cc1S(=O)(=O)Nc1cc(Br)c(O)c2ccccc12,11 µg/mL
17,CCOC(=O)c1cc(-c2ccccc2)sc1NC(=S)NC1CCN(Cc2ccccc2)CC1,0.77 µg/mL
18,Cc1ccc2nsnc2c1S(=O)(=O)Nc1cccc2cccnc12,0.31 µg/mL
19,Cc1ccc(SCC(=O)Nc2cccc(F)c2)cc1,5.34 µg/mL
20,Cc1ccc(OCCN2CCN(c3nc(NCc4ccccc4)c4ccccc4n3)CC2)cc1,1.42 µg/mL

row,SMILES,IC50
1,Cc1cc(C)cc(NC(=O)COc2cccc(C=O)c2)c1,3.3 µg/mL
2,CC1CCc2c(sc3nc4c5ccccc5c(N5CCN(CCO)CC5)nn4c(=O)c23)C1 (stereo not drawn),4.86 µg/mL
3,O=C(Oc1cccc2cccnc12)c1ccc(S(=O)(=O)N2CCCCC2)cc1,1.48 µg/mL
4,COc1ccccc1C(=O)Oc1ccc2c(c1)C(C)CC(C)(C)N2 (stereo not drawn),4.97 µg/mL
5,O=C(Nc1ccc(N2CCN(Cc3ccccc3)CC2)cc1)c1cccc(Cl)c1Cl,4.51 µg/mL
6,Cc1ccc([N+](=O)[O-])cc1NC(=O)c1cc(Cl)ccc1O,29.7 µg/mL
7,CCOc1ccc(Nc2cc(C)nc3ccc(C(=O)OC)cc23)cc1,3.71 µg/mL
8,Cc1ccc(SCC(=O)Nc2cccc(C)c2)cc1,10.9 µg/mL
9,Cc1ccc(-c2nc(NC(=O)CO)cs2)cc1,0.36 µg/mL
10,O=C(CSc1ccc(F)cc1)Nc1ccc2c(c1)OCCO2,7.01 µg/mL
11,Cc1ccc(C(=O)N2CCN(c3ccc(NC(=O)COc4ccccc4Cl)cc3)CC2)cc1,6.08 µg/mL
12,CC12CC3CC(C)(C1)CC(C(=O)Nc1nc4ccccc4s1)(C3)C2,0.24 µg/mL
13,Cc1cc(C)c(C(=O)/C=C/c2cccc([N+](=O)[O-])c2)cc1C,0.36 µg/mL
14,CCN(CC)c1ccc(NC(=O)c2cnccn2)cc1,2.37 µg/mL
15,Nc1ncnc2c1[nH]c(=S)n2CCOc1cccc2ccccc12,10.9 µg/mL
16,CC(=O)Oc1cc(C)cc2oc(=O)c3c(c12)CCCC3,3.85 µg/mL
17,Cc1cccc(OCC(O)CN2CCN(C(c3ccccc3)c3ccccc3)CC2)c1C (stereo not drawn),2.94 µg/mL
18,Cc1cc(OC(=O)c2ccco2)c2c3c(c(=O)oc2c1)CCCC3,23.4 µg/mL
